Patent publication US20160214926A1, “DIPHENYLOXYALKYLAMINE DERIVATIVES AND ARYLOXYALKYLAMINE DERIVATIVES, PHARMACEUTICAL COMPOSITION, USE OF SAID PHARMACEUTICAL COMPOSITION FOR TREATING, PREVENTING OR INHIBITING CHRONIC PULMONARY INFLAMMATORY DISEASES AND METHOD FOR TREATING OR PREVENTING SUCH DISEASES” (FUNDACAO OSWALDO CRUZ, priority 2013, published 2016)
Read-outs that look alike come from different tables or passages of the source.

Tests used:
[1] = system: sodium current in GH3 cells; experiment: Inhibition of sodium current in GH3 cells, patch clamp; assay type: cell-based, rat
rat tracheal rings = experiment: Inhibition of carbachol-induced contraction of rat tracheal rings (pretreatment); conditions: for IC50 / Emax: carbachol 10 μM, pretreated 10 minutes; for Emax: mean ± SEM, read-out: EMAX maximum effect of inhibition of carbachol-induced contraction
Text: In this study, Wistar rats of both sexes were used, weighing between 200 and 250 g, coming from the Laboratory Animal Breeding Center of Fundacdo Oswaldo Cruz. As previously described (Coelho et al., 2008), the animals were sacrificed by exposure to air atmosphere enriched with CO2, Then, the anterior cervical region was opened so that the trachea could be located and removed. It was then transferred to a Petri dish containing Krebs solution with the following composition (mM): NaCl (118), KCl (4.8), CaCl2 (2.5), MgSO4 (1.2), KH2PO4 (1.2), NaHCO3 (24), and glucose (11). The total segment was divided into fragments of about 3 to 4 rings, which were kept in another Petri dish containing Krebs solution. Each fragment was mounted vertically on a 10 ml cuvette with Krebs solution maintained at 37° C. and aerated with carbogen mixture (95% O2 and 5% CO2). The lower rod is fixed to the cuvette base and the top portion was attached to the isometric transducer for measuring the voltage variation of the fragment. The transducer was connected to a device which transforms the voltage variation in digital record. The fragments were subjected to a basal voltage of 1 g and were calibrated, so that the subsequent contractions could be expressed as a percentage of this 1 g voltage. The solutions were introduced inside the cuvettes with the aid of an automatic pipette. The end of the tip was always placed at the same height and position, without touching the muscle. The tracheal rings were initially contracted with 2.5 μM of carbachol. When the contractions reached the plateau, each segment was washed until the total relaxation of the smooth muscle. […] All results were expressed as percentage of the contraction produced by 2.5 μM of carbachol (Coelho et al., 2008).

[2] = system: rat tracheas pre-contracted with carbachol; experiment: Relaxation of rat trachea pre-contracted with carbachol
Description: To assess the potential relaxing effect of the respiratory smooth muscle, rat tracheas were obtained and maintained in an isolated organ bath, as previously described (Coelho et al., 2008). The tracheal segments were then pre-contracted with carbachol at the concentration of 2.5 μM and subjected to increasing concentrations of the tested compounds. All results were expressed as percentage of the contraction produced by carbachol (Coelho et al., 2008).

[3] = system: mast cells of the RBL-2H3 line; experiment: Antigen-induced degranulation of sensitized mast cells (beta-hexosaminidase release); assay type: cell-based; conditions: Rattus norvegicus; for Emax: RBL-2H3, DNP-BSA, read-out: EMAX blocking of anaphylactic mast cell degranulation
Description: For this study, mast cells of the RBL-2H3 line were used, as previously reported (Beaven et al., 1987). […] The cells were then dissociated from the plate using trypsin, centrifuged at 1000 rpm for 5 minutes and distributed in 48-well plates at a density of 125,000 cells per well. The cells were sensitized with monoclonal DNP-specific […] (1 μg/mL) diluted in the same medium used for the cultivation and maintained in the oven for 20 hours. After this period, the cells were washed with Tyrode-gelatin and subjected to treatment with increasing concentrations of […]-209 or mexiletine for 60 minutes. Then, incubation was performed with DNP-BSA (10 ng/ml) for a further period of 60 minutes. After this period, 10 μL of supernatant were collected from each well and added to a 96-well plate. The cells were lysed with 200 μL of 0.1% Triton X-100 and 10 μL of the lysate of each plate were added to the 96-well plate. Then, 40 μL of substrate for the β-hexosaminidase enzyme were added to the samples. After 40 minutes of reaction, reaction stopping solution (0.2 M glycine) was added, generating a colorimetric response, which was measured by spectrophotometer (λ=405 nm).

tracheal rings = experiment: Anaphylactic (ovalbumin-induced) contraction of tracheal rings from sensitized rats; parameters: species or system Wistar rats
Description: In this study, Wistar rats of both sexes were used, weighing between 200 and 250 g, coming from the Laboratory Animal Breeding Center of Fundacdo Oswaldo Cruz. As described previously (da Costa et al., 2007), the animals were sensitized by injection into the dorsal subcutaneous tissue with mixture containing 50 μg of ovalbumin and 5 mg of aluminum hydroxide on days 0 and 7. On the 14th day after the first sensitization, the animals were sacrificed for the removal of the trachea. After a stabilization period of 30 minutes, the tracheal rings were contracted initially with carbachol (2.5 μM) for testing the feasibility and reproducibility of the responses of the preparation.
The tracheal rings were exposed to increasing concentrations of JME-173 (3-30 μM), or carrier (0.9% NaCl) for 30 minutes before the triggering of the contractile response triggered by ovalbumin (100 μg/ml). Salmeterol (30 μM) was used as reference treatment. The responses were expressed as mean±Standard Error of the Mean of at least 5 tracheal segments. All results were expressed as percentage of the contraction produced by 2.5 μM of carbachol.

A/J mice [4] = experiment: Ovalbumin asthma model: airway hyperreactivity, leukocyte infiltration, cytokines (nebulization); assay type: in vivo
Description: Male A/J mice (18-20 g), coming from the Laboratory Animal Breeding Center of Oswaldo Cruz Foundation, were used in the experiments. The animals were previously sensitized with a mixture of ovalbumin (OVA) (50 μg) (Grade V; Sigma, St. Louis, Mo., USA) and aluminum hydroxide (5 mg) administered subcutaneously on day 0 with boost on day 14 (equal suspension administered intraperitoneally). Nasal instillations of OVA (25 μg/25 μl in sterile 0.9% NaCl) were administered on days 14, 21, 28 and 35, with the hyperresponsiveness analysis performed 24 hours after the last challenge. […] That is, the treatments took place after the installation of asthma framework, reflecting a therapeutic action of the respective compounds analyzed.
The effect of the treatments on bronchial hyperreactivity was investigated by measuring the resistance changes and pulmonary elastance, using invasive barometric plethysmography whole-body system (Buxco, USA), as previously described (Olsen et al., 2012).

A/J mice [5] = experiment: Ovalbumin asthma model: hyperreactivity, mucus production, peribronchial fibrosis (nebulization); assay type: in vivo
Text: Male A/J mice (18-20 g), coming from the Laboratory Animal Breeding Center of Oswaldo Cruz Foundation, were used in the experiments. The sensitization procedures, antigen challenge and treatment used in this study followed the experimental protocol shown in FIG. 6. Histological techniques were used for the quantification of mucus and peribronchial fibrosis, following previously reported and validated experimental protocols (Serra et al., 2012).

[6] = trachea pre-contracted with carbachol 2.5 μM, mean±SEM

With `Cc1cccc(C)c1OCC(C)N` (centres unmarked) [Mexiletine, 2-(2-aminopropoxy)-1,3-dimethylbenzene, reference compound] the IC50 ([1]; GH3 cells, patch clamp, read-out: IC50 for blocking the sodium current) was about 278 µM, the IC50 (rat tracheal rings; Rattus norvegicus) was 466 µM and the Emax (rat tracheal rings; Rattus norvegicus) was 87.7 ± 4.9%. For the same compound, the “blocking of the muscarinic contraction” value (rat tracheal rings; compound 1000 μM) was “about 88%”, the maximum relaxation effect [2, 6] was 40% and the IC50 ([3]; RBL-2H3, 1 h, RBL-2H3, DNP-BSA 10 ng/ml, 60 minutes treatment, read-out: IC50 blocking of anaphylactic mast cell degranulation) was 382 µM. For the same compound, the Emax [3] was 100%.

For `Cc1cc(OCC(C)N)cc(C)c1Br.Cl` (centres unmarked) [JME-173], the IC50 (rat tracheal rings; Rattus norvegicus) was 44.4 µM, the Emax (rat tracheal rings; Rattus norvegicus) was 97.9 ± 4.7% and the inhibition at 100 µM (rat tracheal rings; Rattus norvegicus, compound 100 μM, pre-treatment 10 minutes, read-out: inhibition of the muscarinic contraction) was about 98%. The IC50 (rat tracheal rings) was 44.3 µM, the EC50 ([2]; Rattus norvegicus, trachea pre-contracted with carbachol 2.5 μM, mean±SEM) was 3100 µM and the “times more potent as relaxation inducers than mexiletine” value ([2]; pre-contracted trachea) was 47 times. For the same compound, the maximum relaxation effect [2, 6] was 118%, the EC50 (tracheal rings; Rattus norvegicus, ovalbumin 100 μg/ml, 30 minutes pretreatment, read-out: EC50 inhibition of anaphylactic contraction response) was 8.3 µM and the “blocking of anaphylactic contraction” value (tracheal rings; compound 30 μM) was “completely inhibited”. For the same compound, the Emax [3] was 97%, the “IL-5 generation in lung tissue” value (A/J mice [4]; nebulization 2%) was “blocking” and the “IL-13 generation in lung tissue” value (A/J mice [4]; nebulization 2%) was “blocking”. The “eotaxin-2 generation in lung tissue” value (A/J mice [4]; nebulization 2%) was “blocking”, the “increased levels of anti-inflammatory cytokine IL-10” value (A/J mice [4]; nebulization 2%) was “without change” and the “airway hyperreactivity (lung resistance and elastance after methacholine)” value (A/J mice [4]; nebulization 2% for 30 minutes, OVA sensitized and challenged) was “abolished”. The airway hyperreactivity (A/J mice [5]; nebulization 0.5%, 1% or 2% for 30 minutes) was “able to block”, the “inhibition of mucus production in airways” value (A/J mice [5]; nebulization 0.5%, PAS staining, quantitative analysis) was “about 70%” and the peribronchial fibrotic response (A/J mice [5]; nebulization, Gömöri trichrome, morphometry) was “clearly abolished”.

Compound `NC1=N[C@H](O)[C@H]2[C@H]3O[C@]4(O)O[C@@H]([C@@H](O)[C@@]2(N1)[C@@H]4O)[C@]3(O)CO` [tetrodotoxin] has an IC50 ([1]; read-out: IC50 inhibition of sodium current) of 0.304 µM.
